According to US12522575B2, “2-diarylmethyl-4-aminotetrahydropyran derivatives and related compounds as anticancer, antiinflammatory, antifibrotic and neuroprotective agents” (Atux Iskay LLC, priority 2021, dated 2026):

What was measured:
Format in all cases: cell-based
PP2A = PP2A responses in lung fibroblasts; settings: 1 μM, 24 hours
Procedure: Each dot represents cells from a different subject. Student t-tests or 2-way ANOVA were performed and a p-value […] was denoted as * when comparing to the vehicle treated groups.
Each dot represents cells from a different subject. Student t-tests were performed and a p-value […] was denoted as * when comparing non-smoker (NS) to IPF vehicle groups or ** when comparing vehicle IPF to compound IPF groups. Left plot: cell source-healthy non-smoker; Middle plot: cell source—IPF; Right: cell source—IPF.
IPF fibroblasts were exposed to v or 1 micromolar of the ATUX compounds media for 24 hours and increase in PP2A activity is shown in right hand group. PP2A activity in vehicle treated fibroblasts from healthy nonsmokers is shown for comparison in the left hand group.

[1] = test system: D425 medulloblastoma cells; experiment: D425 cell viability / proliferation (CellTiter-Glo); settings: Medulloblastoma cell; 48 hours treatment, CellTiter-Glo; read-out: IC50 for D425 cell growth
Procedure: D425 medulloblastoma cells were purchased from SigmaAldrich. D425 meduloblastoma cells were cultured in improved Dulbecco's modified Eagle's medium (DMEM) Richter's modification supplemented with 20% fetal bovine serum and 1% Penicillin-streptomycin. Incubation was performed at 37° C. and 5% CO2.
D425 cells were seeded at 3000-3500 cells/90 ul growth medium per well on 96-well tissue culture plates. Cells were incubated overnight to allow them to recover. Next day cells were treated with tested compounds and incubated for 48 hours.
Cell Proliferation assays in triplicate were performed at each concentration. Compounds test range was 1-30 μM (0, 5, 10, 15, 20, 25, and 30). The compounds were dissolved in DMSO. A series of dilutions were made in 1% DMSO in growth medium so that the final concentration of DMSO is 0.1% in all of treatments.
After treatment, cells were allowed to equilibrate at room temperature for one hour. Cell proliferation was measured by Luminescence quantification using Promega CellTiter-Glo Luminescent Cell Viability Assay. To perform the assay, 90 ul of Celltiter-Glo substrate was added to each well, plates were shake for 2 minutes and allowed to equilibrate for 10 minutes at room temperature. Luminescence intensity was measured using the Spectramax i3x plate reader.
The Luminescence intensity data were analyzed using the computer software Graphpad Prism. In the absence of the compound, the luminescence intensity (Lt) in each data set was defined as 100% cell viability. The percent cell in the presence of each compound was calculated according to the following equation: % Cell=L/Lt, were L=the luminescence intensity in the presence of the compound.
The values of % cell versus a series of compound concentrations (0, 5, 10, 15, 20, 25, and 30 μM) were then plotted using Nonlinear regression analysis of Sigmoidal dose-response curve. IC50 value was determined by the concentration causing a half-maximal percent activity.

ERK and JNK = ERK and JNK signaling in lung fibroblasts (immunoblot, densitometry); settings: 1 μM, 24 hours, lung fibroblasts (FIGS. 2 and 3)
Procedure: Each dot represents cells from a different subject. Student t-tests or 2-way ANOVA were performed and a p-value […] was denoted as ** when comparing between phosphorylated and unphosphorylated groups.
Compounds of the present invention reactivate PP2A responses in fibroblasts from healthy and IPF subjects.

`O=S(=O)(NC1CCOC(C2c3ccc(F)cc3CCc3cc(F)ccc32)C1)c1ccc(OC(F)(F)F)cc1` (stereo not shown) [Example 6, N-(2-(2,8-difluoro-10,11-dihydro-5H-dibenzo[a,d][7]annulen-5-yl)tetrahydro-2H-pyran-4-yl)-4-(trifluoromethoxy)benzenesulfonamide] was tested, and the “PP2A responses in lung fibroblasts from healthy subjects” value (PP2A; vs vehicle (FIG. 4)) was “reactivation of PP2A responses”, the “PP2A responses in lung fibroblasts from idiopathic pulmonary fibrosis (IPF)” value (PP2A; vs vehicle IPF (FIG. 5)) was “reactivation of PP2A responses” and the IC50 [1] was 5.8 µM. The “ERK and JNK signaling” value (ERK and JNK) was “reduced ERK and JNK signaling”.
